# Test results: patent US9527841B2, “Substituted pyrido[2,3-b]pyrazines as phosphodiesterase 2A inhibitors” (Takeda Pharmaceutical Company Limited, priority 2012, dated 2016)
# Molecular target: T1, Human PDE2A3 enzyme (Homo sapiens, UniProt O00408)
# T1 construct: transfected with the full-length gene; His-tag; made in house; host or cells: Sf9 insect cells
# Assay: PDE Enzyme Inhibition Assay (SPA, [3H]cGMP)
# Format: biochemical
# Settings: compound 10 μM; substrate [3H]cGMP 77 nM; 60 min at room temperature; duplicate
# Method: Human PDE2A3 enzyme was generated from Sf9 cells transfected with the full-length gene. The extracted enzyme from Sf9 cells was purified by His-tag affinity column and gel filtration. The enzyme was stored at −70° C. until use. PDE activity was measured using a SPA (Scintillation Proximity Assay) (GE Healthcare). To evaluate the inhibitory activity, 10 μl of serial diluted compounds were incubated with 20 μl of PDE enzyme in assay buffer (50 mM HEPES-NaOH, 8.3 mM MgCl2, 1.7 mM EGTA, 0.1% BSA (pH 7.4)) at room temperature for 30 min. Final concentration of DMSO in the assay was 1%. The evaluation of the compounds were performed in duplicate in 96-well half-area plates (Corning) or 384-well OptiPlate (PerkinElmer). To start the reaction, 10 μl of substrate [^3H] cGMP (77 nM, PerkinElmer) was added for a final assay volume of 40 μl. After 60 min incubation at room temperature, 20 μl of yttrium SPA beads (20 mg/ml) containing zinc sulphate was added thereto to terminate the PDE reaction. After being settled for additional 1 hr, the assay plates were counted in a scintillation counter (PerkinElmer) to allow calculation of inhibition rate. Inhibition rate was calculated on the basis of 0% control wells with enzyme and DMSO, and 100% control wells without enzyme.
# T1 sequence (O00408 whole entry): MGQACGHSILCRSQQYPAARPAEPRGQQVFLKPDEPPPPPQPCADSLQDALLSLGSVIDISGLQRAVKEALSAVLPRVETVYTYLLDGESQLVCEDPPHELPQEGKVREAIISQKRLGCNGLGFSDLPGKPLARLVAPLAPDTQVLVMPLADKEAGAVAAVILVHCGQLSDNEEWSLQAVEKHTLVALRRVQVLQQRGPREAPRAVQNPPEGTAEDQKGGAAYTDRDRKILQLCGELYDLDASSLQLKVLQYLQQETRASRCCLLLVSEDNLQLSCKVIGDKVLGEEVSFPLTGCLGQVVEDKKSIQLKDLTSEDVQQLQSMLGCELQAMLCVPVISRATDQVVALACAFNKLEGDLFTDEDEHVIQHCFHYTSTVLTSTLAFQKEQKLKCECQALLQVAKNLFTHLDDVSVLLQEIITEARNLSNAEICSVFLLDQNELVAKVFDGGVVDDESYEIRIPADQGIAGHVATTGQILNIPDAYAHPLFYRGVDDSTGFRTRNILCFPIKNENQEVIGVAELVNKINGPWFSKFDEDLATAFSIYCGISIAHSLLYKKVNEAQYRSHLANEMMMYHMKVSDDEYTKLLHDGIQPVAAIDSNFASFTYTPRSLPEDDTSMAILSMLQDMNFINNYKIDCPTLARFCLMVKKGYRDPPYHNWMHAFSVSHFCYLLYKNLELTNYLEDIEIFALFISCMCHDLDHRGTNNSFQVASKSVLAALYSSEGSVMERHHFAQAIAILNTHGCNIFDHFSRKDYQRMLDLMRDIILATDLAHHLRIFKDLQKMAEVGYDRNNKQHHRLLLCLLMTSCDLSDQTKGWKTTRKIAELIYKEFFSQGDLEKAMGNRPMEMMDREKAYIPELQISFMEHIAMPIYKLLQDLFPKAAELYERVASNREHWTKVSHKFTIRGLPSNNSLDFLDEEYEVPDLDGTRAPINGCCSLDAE
row,Structure (SMILES),inhibition at 10 µM
1,"CCC(Oc1ccc(OC(F)(F)F)cc1)C(=O)N1CC(=O)Nc2cccnc21 (centres unmarked) [Example 3, optical active form of 4-(2-(4-(trifluoromethoxy)phenoxy)butanoyl)-3,4-dihydropyrido[2,3-b]pyrazin-2 (1H)-one]",100%
2,"CCC(Oc1ccc(C(F)(F)F)cc1)C(=O)N1CC(=O)Nc2cccnc21 (centres unmarked) [Example 4, 4-(2-(4-(trifluoromethyl)phenoxy)butanoyl)-3,4-dihydropyrido[2,3-b]pyrazin-2(1H)-one]",98%
3,"CCC(Oc1ccc(OC(F)(F)F)cc1)C(=O)N1CC(=O)Nc2cc(C)cnc21 (centres unmarked) [Example 6, 7-methyl-4-(2-(4-(trifluoromethoxy)phenoxy)butanoyl)-3,4-dihydropyrido[2,3-b]pyrazin-2(1H)-one]",100%
4,"CCC(Nc1ccc(OC(F)(F)F)cc1)C(=O)N1CC(=O)Nc2cccnc21 (centres unmarked) [Example 23, 4-(2-((4-(trifluoromethoxy)phenyl)amino)butanoyl)-3,4-dihydropyrido[2,3-b]pyrazin-2(1H)-one]",97%
5,"CCC(Oc1ccc(OC(F)(F)F)cc1)C(=O)N1CC(=O)Nc2c(C)ccnc21 (centres unmarked) [Example 29, optical active form of 8-methyl-4-(2-(4-(trifluoromethoxy)phenoxy)butanoyl)-3,4-dihydropyrido[2,3-b]pyrazin-2(1H)-one]",99%
6,"CCC(Oc1ccc(C(C)C)cc1)C(=O)N1CC(=O)Nc2cccnc21 (centres unmarked) [Example 47, 4-(2-(4-isopropylphenoxy)butanoyl)-3,4-dihydropyrido[2,3-b]pyrazin-2(1H)-one]",98%
7,"CCC(Oc1ccc(S(=O)(=O)C(F)(F)F)cc1)C(=O)N1CC(=O)Nc2cccnc21 (centres unmarked) [Example 75, 4-(2-(4-((trifluoromethyl)sulfonyl)phenoxy)butanoyl)-3,4-dihydropyrido[2,3-b]pyrazin-2(1H)-one]",95%
8,"COc1cnc2c(c1)NC(=O)CN2C(=O)C(Oc1ccc(-n2cccn2)c(F)c1)C(C)C (centres unmarked) [Example 135, 4-(2-(3-fluoro-4-(1H-pyrazol-1-yl)phenoxy)-3-methylbutanoyl)-7-methoxy-3,4-dihydropyrido[2,3-b]pyrazin-2(1H)-one]",99%

# Next, values leading:
row,inhibition at 10 µM,Structure (SMILES)
1,99%,"COCCC(Oc1ccc(OC(F)(F)F)cc1)C(=O)N1CC(=O)Nc2cccnc21 (centres unmarked) [Example 18, 4-(4-methoxy-2-(4-(trifluoromethoxy)phenoxy)butanoyl)-3,4-dihydropyrido[2,3-b]pyrazin-2(1H)-one]"
2,98%,"CC(C)C(Oc1ccc(C(F)(F)F)cc1)C(=O)N1CC(=O)Nc2cccnc21 (centres unmarked) [Example 21, 4-(3-methyl-2-(4-(trifluoromethyl)phenoxy)butanoyl)-3,4-dihydropyrido[2,3-b]pyrazin-2(1H)-one]"
3,96%,"O=C1CN(C(=O)[C@@H]2CCCN2c2ccc(OC(F)(F)F)cc2)c2ncccc2N1 [Example 25, 4-(1-(4-(trifluoromethoxy)phenyl)prolyl)-3,4-dihydropyrido[2,3-b]pyrazin-2(1H)-one]"
4,99%,"CCC(Oc1ccc(OC(F)(F)F)cc1)C(=O)N1CC(=O)Nc2ccc(C)nc21 (centres unmarked) [Example 28, optical active form of 6-methyl-4-(2-(4-(trifluoromethoxy)phenoxy)butanoyl)-3,4-dihydropyrido[2,3-b]pyrazin-2(1H)-one]"
5,99%,"CCC(Oc1ccc(-n2cccn2)cc1)C(=O)N1CC(=O)Nc2cccnc21 (centres unmarked) [Example 55, 4-(2-(4-(1H-pyrazol-1-yl)phenoxy)butanoyl)-3,4-dihydropyrido[2,3-b]pyrazin-2(1H)-one]"
6,100%,"CCC(Oc1ccc(OC(F)(F)F)cc1)C(=O)N1CC(=O)Nc2ccc(-c3ccn(C)n3)nc21 (centres unmarked) [Example 132, optical active form of 6-(1-methyl-1H-pyrazol-3-yl)-4-(2-(4-(trifluoromethoxy)phenoxy)butanoyl)-3,4-dihydropyrido[2,3-b]pyrazin-2(1H)-one]"
